The values below come from patent publication US20190211020A1 (Agency for Science, Technology and Research, priority 2012, published 2019).

Each structure is given as a SMILES string.

The subject of one series is eIF4E Ser209 phosphorylation in Hela cells. As to the kind of experiment: MNK cell-based assay (AlphaScreen SureFire, eIF4E Ser209 phosphorylation). Conditions: Homo sapiens, HeLa, 2 h, read-out: IC50 Hela. The procedure, abridged: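 Hela cells (30,000/well) exposed to test compound in serum-free medium for 2 h at 37 °C, then lysed. Phospho-Ser209 eIF4E quantified by AlphaScreen SureFire; IC50 obtained by non-linear regression of signal versus log compound concentration.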
In general terms: Bead proximity is the source of the signal in Alpha formats.
Consider `N#Cc1ccc(-n2cnc3ccc(-c4ccc(C(=O)N5CCOCC5)cc4)cc32)cc1` [Example 190, 4-(6-(4-(morpholine-4-carbonyl)phenyl)-1H-benzo[d]imidazol-1-yl)benzonitrile], for which the IC50 is less than 1000 nM.
The same measure, in the same setting: then `Cc1cc2ncc(-c3ccc(C#N)cc3)n2cc1-c1ccc(C(=O)N2CCC(C)(N)CC2)cc1` [Example 137, 4-(6-(4-(4-amino-4-methylpiperidine-1-carbonyl)phenyl)-7-methylimidazo[1,2-a]pyridin-3-yl)benzonitrile], with less than 1000 nM.

The series is the same for the next values; noted with them: Homo sapiens; eIF4E Ser209 phosphorylation, Hela cells, 2 hours; read-out: IC50 Hela.
Take `N#Cc1ccc(-c2cnc3ccc(-c4ccc(C(=O)N5CCC(O)CC5)cc4)nn23)cc1` [Example 55, 4-(6-(4-(4-hydroxypiperidine-1-carbonyl)phenyl)imidazo [1,2-b]pyridazin-3-yl)benzonitrile]: the IC50 was less than 1000 nM.
The same measure, in the same setting: then `N#Cc1ccc(-c2cnn3ccc(-c4ccc(C(=O)N5CCNCC5)cc4)nc23)cc1` [Example 183, 4-(5-(4-(piperazine-1-carbonyl)phenyl)pyrazolo[1,5-a]pyrimidin-3-yl)benzonitrile], with less than 1000 nM; and `CN1CCN(C(=O)c2ccc(-c3ccc4ncc(-c5ccc(C#N)cc5)n4c3)cc2N)CC1` [Example 146, 4-(6-(3-amino-4-(4-methylpiperazine-1-carbonyl)phenyl)imidazo [1,2-a]pyridin-3-yl)benzonitrile], with less than 1000 nM; and `CN1CCCCC12CCN(C(=O)c1ccc(-c3ccc4ncc(-c5ccc(C#N)cc5)n4c3)cc1)CC2` [Example 119, 4-(6-(4-(1-methyl-1,9-diazaspiro [5.5]undecane-9-carbonyl)phenyl)imidazo[1,2-a]pyridin-3-yl)benzonitrile], with less than 1000 nM.
The same measure, in the same setting: then `N#Cc1ccc(-c2cnn3ccc(-c4ccc(C(=O)N5CCOCC5)cc4)nc23)cc1` [Example 185, 4-(5-(4-(morpholine-4-carbonyl)phenyl)pyrazolo [1,5-a]pyrimidin-3-yl)benzonitrile], with less than 1000 nM.
With `CN1CCCN(C(=O)c2ccc(-c3ccc4ncc(-c5ccc(C#N)cc5)n4c3)cc2)CC1` [Example 103, 4-(6-(4-(4-methyl-1,4-diazepane-1-carbonyl)phenyl)imidazo[1,2-a]pyridin-3-yl)benzonitrile], the IC50 was less than 1000 nM.
For the compound `N#Cc1ccc(-c2cnc3ccc(-c4ccc(C(=O)N5CCCNCC5)cc4)cn23)cc1` [Example 107, 4-(6-(4-(1,4-diazepane-1-carbonyl)phenyl)imidazo [1,2-a]pyridin-3-yl)benzonitrile], the IC50 was less than 1000 nM.
On the same count and under the same terms, then `CC(=O)N1CCCCC12CCN(C(=O)c1ccc(-c3ccc4ncc(-c5ccc(C#N)cc5)n4c3)cc1)CC2` [Example 118, 4-(6-(4-(1-acetyl-1,9-diazaspiro[5.5]undecane-9-carbonyl)phenyl)imidazo[1,2-a]pyridin-3-yl)benzonitrile], with less than 1000 nM; and `CC(=O)N1CCN(C(=O)c2ccc(-c3ccn4ncc(-c5ccc(C#N)cc5)c4n3)cc2)CC1` [Example 184], with less than 1000 nM; and `CN1CCN(C2CCN(C(=O)c3ccc(-c4ccc5ncc(-c6ccc7c(c6)CC(=O)N7)n5n4)cc3)CC2)CC1` [Example 89, 5-(6-(4-(4-(4-methylpiperazin-1-yl)piperidine-1-carbonyl)phenyl)imidazo[1,2-b]pyridazin-3-yl)indolin-2-one], with less than 1000 nM.
With `CN(CC(=O)N1CCOCC1)C(=O)c1ccc(-c2ccc3ncc(-c4ccc(C#N)cc4)n3c2)cc1` [Example 101, 4-(3-(4-cyanophenyl)imidazo[1,2-a]pyridin-6-yl)-N-methyl-N-(2-morpholino-2-oxoethyl)benzamide], the IC50 was less than 1000 nM.
With `N#Cc1ccc(-c2cnc3ccc(-c4ccc(C(=O)N5CCC(CCN)CC5)cc4)cn23)cc1` [Example 124, 4-(6-(4-(4-(2-aminoethyl)piperidine-1-carbonyl)phenyl)imidazo[1,2-a]pyridin-3-yl)benzonitrile], the IC50 is less than 1000 nM.
On the same count and under the same terms, then `Cc1cc(-c2cn3c(-c4ccc(C#N)cc4)cnc3cn2)ccc1C(=O)N1CCC(C)(N)CC1` [Example 28, 4-(6-(4-(4-amino-4-methylpiperidine-1-carbonyl)-3-methylphenyl)imidazo [1,2-a]pyrazin-3-yl)benzonitrile], with less than 1000 nM.
Still for that read-out and setting: then `CN1CCN(C(=O)c2ccc(-c3ccc4ncc(-c5ccc(C#N)cc5)n4n3)cc2Cl)CC1` [Example 72, 4-(6-(3-chloro-4-(4-methylpiperazine-1-carbonyl)phenyl)imidazo[1,2-b]pyridazin-3-yl)benzonitrile], with less than 1000 nM; and `Cc1cc2ncc(-c3ccc(C#N)cc3)n2cc1-c1ccc(C(=O)N2CCN(C)CC2)cc1` [Example 138, 4-(7-methyl-6-(4-(4-methylpiperazine-1-carbonyl)phenyl)imidazo[1,2-a]pyridin-3-yl)benzonitrile], with less than 1000 nM.
Still for that read-out and setting: then `CC1(N)CCN(C(=O)c2ccc(-c3cn4c(-c5ccc(C#N)cc5)cnc4cn3)cc2Cl)CC1` [Example 32, 4-(6-(4-(4-amino-4-methylpiperidine-1-carbonyl)-3-chlorophenyl)imidazo[1,2-a]pyrazin-3-yl)benzonitrile], with less than 1000 nM; and `CC(C)(C)N1CCN(C(=O)c2ccc(-c3cn4c(-c5ccc(C(N)=O)cc5)cnc4cn3)cc2)CC1` [Example 5, 4-(6-(4-(4-tert-butylpiperazine-1-carbonyl)phenyl)imidazo [1,2-a]pyrazin-3-yl)benzamide], with less than 1000 nM; and `N#Cc1ccc(-c2cnc3ccc(-c4ccc(C(=O)N5CCC(N)CC5)cc4)cn23)cc1` [Example 109, 4-(6-(4-(4-aminopiperidine-1-carbonyl)phenyl)imidazo[1,2-a]pyridin-3-yl)benzonitrile], with less than 1000 nM.
With `CNC1CCN(C(=O)c2ccc(-c3ccc4ncc(-c5ccc(C#N)cc5)n4n3)cc2)CC1` [Example 60, 4-(6-(4-(4-(methylamino)piperidine-1-carbonyl)phenyl)imidazo[1,2-b]pyridazin-3-yl)benzonitrile], the IC50 was less than 1000 nM.
In the case of `CN1CCCN(C(=O)c2ccc(-c3cn4c(-c5ccc(C#N)cc5)cnc4cn3)cc2)CC1` [Example 17, 4-(6-(4-(4-methyl-1,4-diazepane-1-carbonyl)phenyl)imidazo [1,2-a]pyrazin-3-yl)benzonitrile], the IC50 was less than 1000 nM.
As for `CNC1CCN(C(=O)c2ccc(-c3cn4c(-c5ccc(C#N)cc5)cnc4cn3)cc2)CC1` [Example 9, 4-(6-(4-(4-(methylamino)piperidine-1-carbonyl)phenyl)imidazo[1,2-a]pyrazin-3-yl)benzonitrile], the IC50 is less than 1000 nM.
In the case of `CN1CCN(C(=O)c2ccc(-c3ccc4ncc(-c5ccc(C#N)cc5)n4c3)cc2F)CC1` [Example 142, 4-(6-(3-fluoro-4-(4-methylpiperazine-1-carbonyl)phenyl)imidazo[1,2-a]pyridin-3-yl)benzonitrile], the IC50 is less than 1000 nM.
Turning to `CCN1CCN(C(=O)c2ccc(-c3ccc4ncc(-c5ccc(C#N)cc5)n4c3)cc2)CC1` [Example 98, 4-(6-(4-(4-ethylpiperazine-1-carbonyl)phenyl)imidazo [1,2-a]pyridin-3-yl)benzonitrile], the IC50 was less than 1000 nM.
On the same count and under the same terms, then `CN1CCN(C(=O)c2ccc(-c3ccc4ncc(-c5ccc6[nH]ncc6c5)n4n3)cc2)CC1` [Example 86, (4-(3-(1H-indazol-5-yl)imidazo[1,2-b]pyridazin-6-yl)phenyl)(4-methylpiperazin-1-yl)methanone], with less than 1000 nM; and `CC(=O)Nc1cc(-c2ccc3ncc(-c4ccc(C#N)cc4)n3c2)ccc1C(=O)N1CCOCC1` [Example 166, N-(5-(3-(4-cyanophenyl)imidazo[1,2-a]pyridin-6-yl)-2-(morpholine-4-carbonyl)phenyl)acetamide], with less than 1000 nM.
Same read-out and setting: then `CC(=O)Nc1cc(-c2ccc3ncc(-c4ccc(C#N)cc4)n3c2)ccc1C(=O)N1CCN(C)CC1` [Example 149, N-(5-(3-(4-cyanophenyl)imidazo[1,2-a]pyridin-6-yl)-2-(4-methylpiperazine-1-carbonyl)phenyl)acetamide], with less than 1000 nM.
The same measure, in the same setting: then `CN1CCN(C(=O)c2ccc(-c3cn4c(-c5ccc(C#N)cc5)cnc4cn3)c(O)c2)CC1` [Example 38, 4-(6-(2-hydroxy-4-(4-methylpiperazine-1-carbonyl)phenyl)imidazo [1,2-a]pyrazin-3-yl)benzonitrile], with less than 1000 nM; and `N#Cc1ccc(-c2cnc3ccc(-c4ccc(C(=O)N5CCC(CN)CC5)cc4)cn23)cc1` [Example 123, 4-(6-(4-(4-(aminomethyl)piperidine-1-carbonyl)phenyl)imidazo[1,2-a]pyridin-3-yl)benzonitrile], with less than 1000 nM.
Take `COc1cc(-c2cn3c(-c4ccc(C#N)cc4)cnc3cn2)ccc1C(=O)N1CCN(C)CC1` [Example 39, 4-(6-(3-methoxy-4-(4-methylpiperazine-1-carbonyl)phenyl)imidazo[1,2-a]pyrazin-3-yl)benzonitrile]: the IC50 is less than 1000 nM.
As to `CS(=O)(=O)NC1CCN(C(=O)c2ccc(-c3ccc4ncc(-c5ccc(C#N)cc5)n4c3)cc2)CC1` [Example 111, N-(1-(4-(3-(4-cyanophenyl)imidazo[1,2-a]pyridin-6-yl)benzoyl)piperidin-4-yl)methanesulfonamide], the IC50 is less than 1000 nM.

Tested on in a further series: not listed separately
Description: Pharmacokinetics assays (plasma and brain). In kind it is in vivo. On the set-up: AUC(0-t) / AUC(0-inf): concentration or dose not given beside the values. Conditions: brain.
As to `N#Cc1ccc(-c2cnc3ccc(-c4ccc(C(=O)N5CCOCC5)cc4)nn23)cc1` [Entry 5], the “Brain AUC inf” value is 8951 ng·h/g, the “Brain AUC last” value was 8811 ng·h/g and the “Brain Cmax” value amounted to 1724 ng/g.

Still in this series, the particulars now being: brain; read-out: Brain T1/2 (converted).
Take `N#Cc1ccc(-c2cnc3ccc(-c4ccc(C(=O)N5CCOCC5)cc4)nn23)cc1` [Entry 5]: the half-life is 4.28 h.

The series is the same for the next values; noted with them: plasma.
`N#Cc1ccc(-c2cnc3ccc(-c4ccc(C(=O)N5CCOCC5)cc4)nn23)cc1` [Entry 5]: the AUC(0-inf) was found to be 76500 ng·h/mL.

Staying with this series, now noted: plasma; read-out: Plasma AUC last.
Take `N#Cc1ccc(-c2cnc3ccc(-c4ccc(C(=O)N5CCOCC5)cc4)nn23)cc1` [Entry 5]: the AUC(0-t) is 74700 ng·h/mL.

The same series, now with this note: plasma; read-out: Plasma T1/2 (converted).
Regarding `N#Cc1ccc(-c2cnc3ccc(-c4ccc(C(=O)N5CCOCC5)cc4)nn23)cc1` [Entry 5], the half-life is 4.33 h.

The series is the same for the next values; noted with them: plasma; species, dose and route not given.
As to `N#Cc1ccc(-c2cnc3ccc(-c4ccc(C(=O)N5CCOCC5)cc4)nn23)cc1` [Entry 5], the Cmax was 13400 ng/mL.

As usually defined, the IC50 is the concentration that gives 50% inhibition. What is called AUC(0-inf) is the area under the concentration-time curve extrapolated to infinity. As a reminder, the Cmax is the peak of the concentration-time curve.
